Drawing on ChEMBL document CHEMBL1150583, “New isoflavone and triterpene glycosides from soybeans” (2002), this text covers EC50 for eight compounds.

Values after ≈ are worked out from the molar mass of the structure shown.

Holding throughout (format): functional
Test [1] in a line: Cytotoxicity against human Hs 578T cells after 6 days by MTT assay. Conditions: 144 h, read-out: ED50 (the source's name). (Tetrazolium assays rely on reduction of a dye to a coloured formazan, in cell work by metabolically active cells.)
Test [2] is described as follows: Cytotoxicity against human Hs 742.T cells after 6 days by MTT assay. Conditions: 144 h, read-out: ED50 (the source's name).
Test [3] in a line: Cytotoxicity against human Hs 746T cells after 6 days by MTT assay. Conditions: Hs746T, 144 h, read-out: ED50 (the source's name).
Test [4] in a line: Cytotoxicity against human LNCaP-FGC cells after 6 days by MTT assay. The settings on record: LNCaP-Clone-FGC, 144 h, read-out: ED50 (the source's name).
Test [5] can be described thus: Cytotoxicity against human Hs 740.T cells after 6 days by MTT assay. Conditions: 144 h, read-out: ED50 (the source's name).
The subject of another test is DU-145. In words: Cytotoxicity against human DU145 cells after 6 days by MTT assay. The settings on record: DU-145, 144 h, read-out: ED50 (the source's name).

On to `C[C@@H]1O[C@@H](O[C@H]2[C@H](O[C@H]3[C@H](O[C@H]4CC[C@@]5(C)[C@@H](CC[C@]6(C)[C@@H]5CC=C5[C@@H]7CC(C)(C)C[C@@H](O[C@@H]8O[C@H](CO)[C@@H](O)[C@H](O)[C@H]8O[C@@H]8O[C@@H](C)[C@H](O)[C@@H](O)[C@H]8O)[C@]7(C)CC[C@]56C)[C@]4(C)CO)O[C@H](C(=O)O)[C@@H](O)[C@@H]3O)O[C@H](CO)[C@H](O)[C@@H]2O)[C@H](O)[C@H](O)[C@H]1O`, for which the EC50 in test [1] worked out at 2.12 µg/mL (≈ 1.69 µM); in test [2], 14.6 µg/mL (≈ 11.7 µM); in test [3], 3.94 µg/mL (≈ 3.15 µM); in test [4], 24.1 µg/mL (≈ 19.3 µM); in test [5], 4.1 µg/mL (≈ 3.28 µM); in the test with DU-145 it was 3.25 µg/mL (≈ 2.6 µM).

For the compound `COc1ccc(-c2coc3cc(O[C@@H]4O[C@H](COC(C)=O)[C@@H](O)[C@H](O)[C@H]4OC(C)=O)ccc3c2=O)cc1`, the EC50 in test [1] was found to be 5.44 µg/mL (≈ 10.6 µM); in test [2], 25.5 µg/mL (≈ 49.6 µM); in test [3], 8.89 µg/mL (≈ 17.3 µM); in test [4] it was 22.1 µg/mL (≈ 43 µM); in test [5], 7.61 µg/mL (≈ 14.8 µM); with DU-145, 4.18 µg/mL (≈ 8.12 µM).

Turning to `C[C@@H]1O[C@@H](O[C@H]2[C@H](O[C@@H]3CC(C)(C)C[C@H]4C5=CC[C@@H]6[C@@]7(C)CC[C@H](O[C@@H]8O[C@H](C(=O)O)[C@@H](O)[C@H](O)[C@H]8O[C@@H]8O[C@H](CO)[C@H](O)[C@H](O)[C@H]8O[C@@H]8O[C@@H](C)[C@H](O)[C@@H](O)[C@H]8O)[C@@](C)(CO)[C@@H]7CC[C@@]6(C)[C@]5(C)CC[C@@]34C)OC[C@H](O)[C@@H]2O)[C@H](O)[C@H](O)[C@H]1O`, the EC50 in test [1] is 2.39 µg/mL (≈ 1.96 µM); in test [2], 17.5 µg/mL (≈ 14.3 µM); in test [3], 2.47 µg/mL (≈ 2.02 µM); in test [4] it was 27.5 µg/mL (≈ 22.5 µM); in test [5], 3.53 µg/mL (≈ 2.89 µM); in the test on DU-145, 3.12 µg/mL (≈ 2.55 µM).

Consider `CC1(C)C[C@@H](O)[C@]2(C)CC[C@]3(C)C(=CC[C@@H]4[C@@]5(C)CC[C@H](O[C@@H]6O[C@H](C(=O)O)[C@@H](O)[C@H](O)[C@H]6O)[C@@](C)(CO)[C@@H]5CC[C@]43C)[C@@H]2C1` [3-O-[BETA-D-GLUCURONOPYRANOSYL]SOYASAPOGENOL B], for which the EC50 in test [1] was determined as 8.77 µg/mL (≈ 13.8 µM); in test [2], 28.7 µg/mL (≈ 45.2 µM); in test [3], 9.59 µg/mL (≈ 15.1 µM); in test [4], 37.3 µg/mL (≈ 58.7 µM); in test [5], 9.61 µg/mL (≈ 15.1 µM); in the test on DU-145, 9.13 µg/mL (≈ 14.4 µM).

For the compound `CC1(C)C[C@@H](O)[C@]2(C)CC[C@]3(C)C(=CC[C@@H]4[C@@]5(C)CC[C@H](O[C@@H]6O[C@H](C(=O)O)[C@@H](O)[C@H](O)[C@H]6O[C@@H]6O[C@H](CO)[C@H](O)[C@H](O)[C@H]6O[C@@H]6O[C@H](CO)[C@@H](O)[C@H](O)[C@H]6O)[C@@](C)(CO)[C@@H]5CC[C@]43C)[C@@H]2C1` [3-O-[BETA-DGLUCOPYRANOSYL-(1->2)-BETA-D-GALACTOPYRANOSYL(1->2)-BETA-DGLUCURONOPYRANOSYL]SOYASAPOGENOL B], the EC50 in test [1] is 9.87 µg/mL (≈ 10.3 µM); in test [2], 31.6 µg/mL (≈ 32.9 µM); in test [3], 7.36 µg/mL (≈ 7.67 µM); in test [4], 40.7 µg/mL (≈ 42.4 µM); in test [5] it was 8.97 µg/mL (≈ 9.35 µM); in the test on DU-145 it was 5.75 µg/mL (≈ 5.99 µM).

On to `O=C1c2ccc(O[C@@H]3O[C@H](CO)[C@@H](O)[C@H](O)[C@H]3O)cc2OCC1c1ccc(O)cc1` (stereo partly drawn) [DIHYDRODAIDZIN], for which the EC50 amounted to 28.2 µg/mL (≈ 67.5 µM) in test [1]; 33.6 µg/mL (≈ 80.2 µM) in test [2]; 14.9 µg/mL (≈ 35.7 µM) in test [3]; 32.5 µg/mL (≈ 77.6 µM) in test [4]; 17.4 µg/mL (≈ 41.5 µM) in test [5]; 9.16 µg/mL (≈ 21.9 µM) in the test on DU-145.

Regarding `O=C1c2c(O)cc(O[C@@H]3O[C@H](CO)[C@@H](O)[C@H](O)[C@H]3O)cc2OCC1c1ccc(O)cc1` (stereo partly drawn) [DIHYDROGENISTIN], the EC50 in test [1] turned out to be 15.4 µg/mL (≈ 35.4 µM); in test [2], 30.8 µg/mL (≈ 70.9 µM); in test [3] it was 12.2 µg/mL (≈ 28.2 µM); in test [4], 41.6 µg/mL (≈ 95.7 µM); in test [5], 15.1 µg/mL (≈ 34.8 µM); in the test on DU-145, 10.2 µg/mL (≈ 23.6 µM).

With `O=c1c(-c2ccc(O)cc2)coc2cc(O)cc(O)c12` [GENISTEIN], the EC50 in test [1] came to 3.5 µg/mL (≈ 13 µM); in test [2], 14.9 µg/mL (≈ 55.1 µM); in test [3], 5.82 µg/mL (≈ 21.5 µM); in test [4], 25.4 µg/mL (≈ 94.2 µM); in test [5], 4.38 µg/mL (≈ 16.2 µM); in the test on DU-145 it was 2.39 µg/mL (≈ 8.84 µM).
